Assay results taken from patent US11684701B2, “Operating room coating applicator and method” (Ethicon, Inc., priority 2018, dated 2023).

Tests used:
[1] = system: microorganism; details: French Percuflex catheters dip-coated, sterilized with ethylene oxide, stored; for thirty days after being coated; cited from earlier work
[2] = system: Staphylococcus aureus; assay: Zone of inhibition test of gentamicin-coated stainless steel coupon on agar plate; assay type: cell-based; details: 4% gentamicin solution in water nebulized onto 0.5" polished 316 stainless steel coupon; incubated at 38° C. for 24 hours; initial S. aureus inoculum 10^5 bacteria per cubic centimeter
Excerpt: A filter paper disk, or other object, impregnated with a particular antimicrobial agent is applied to an agar medium that is inoculated with the test organism. Where the anti-microbial agent diffuses through the medium, and as long as the concentration of the antimicrobial agent is above the MIC, none of the susceptible organism will grow on or around the disk for some distance. This distance is called a zone of inhibition. […] The diameter of the zone of inhibition is inversely proportional to the MIC.
A 4% gentamicin solution in water was applied to a 0.5″ polished 316 stainless steel coupon using the device described in FIGS. 3A and 3B according to the cycle described in FIG. 10. The stainless steel coupon was then incubated at 38° C. for 24 hours in an agar plate containing an initial Staphylococcus aureus inoculum of 10^5 bacteria per cubic centimeter of solution.

Row | Compound | antimicrobial properties (zone of inhibition) [1] | protective zone of inhibition formed around the coupon [2]
1 | Oc1cc(Cl)ccc1Oc1ccc(Cl)cc1Cl [2,4,4′-tricloro-2-hydroxydiphenyl ether] | produced a zone of inhibition | 
2 | gentamicin |  | approximately 8 mm
